The text below walks through data of publication PMC5082894 (PLoS ONE, 2016).

Molecules are shown by their SMILES.

The test system of one series is HIV-1 98IN017 (C-X4). Kind of series: PBMC antiviral assay (RT activity), HIV-1 98IN017. The format is cell-based. Particulars: PHA-P-activated PBMCs, 125 TCID50, day 7, RT activity. As for the experimental part:
(§1) In order to confirm antiretroviral activity of the compounds, using a cell model closer to the pathophysiology, Peripheral Blood Mononuclear Cells (PBMCs) were separated from a buffy-coat from healthy HIV-, HCV-, HBV-seronegative blood donors by Ficoll-Hypaque density gradient centrifugation. The PBMCs were activated by incubation with 1 μg/ml phytohemagglutinin-P (PHA-P; Difco Laboratories) for three days in RPMI 1640 medium supplemented with 10% heat-inactivated fetal calf serum (FCS, +56 ◦C for 45 min), 2mM l-glutamine and a 1% antibiotic cocktail (penicillin, streptomycin, neomycin). After this mitogen activation, PBMCs were cultivated in the same culture medium supplemented with recombinant human interleukin-2 (rHuIL-2; 20 IU/mL) and treated and/or infected. […] All these viruses were amplified in vitro with PHA-P-activated blood mononuclear cells and 50% tissue culture infectious doses (TCID50) were calculated using Kärber’s formula [37], after limited-dilution titration. […] Viral replication was measured by quantifying reverse transcriptase (RT) activity in the cell culture supernatants using the Lenti RT Activity Kit (Cavidi) and AZT was used as reference anti-HIV-1 molecule. EC50 were then calculated and expressed in μM.

A further series has as its system HIV-1 Ba-L (B-R5). Kind of series: PBMC antiviral assay (RT activity), HIV-1 Ba-L. The format is cell-based. As to conditions: PHA-P-activated PBMCs, 125 TCID50, day 7, RT activity. As for the experimental part: as §1
The next series concerns HIV-1 NL4-3. Description: MAGI assay, HIV-1 NL4-3. The class given is cell-based. As to conditions: MAGI cells, 48 h, mean of triplicate ± SD. How it is done: (§2) Briefly, target cells (HeLa CD4/CCR5-LTR/β-gal; 10^4/well) were plated in 96-well flat microtiter culture plates. […] The test drugs were added initially and viruses were immediately inoculated onto the cells. Forty-eight hours after viral exposure, all blue cells in each well were counted. The cytotoxicity of the compound was determined by the MTT method as previously described. All experiments were performed in triplicate and AZT was used as reference anti-HIV-1 molecule.

A further series has as its system HIV-1 92UG029 (A-X4). Description: PBMC antiviral assay (RT activity), HIV-1 92UG029. The format is cell-based. As to conditions: PHA-P-activated PBMCs, 125 TCID50, day 7, RT activity. How it is done: as §1
In a further series the test system is HIV-1 LAI. Kind of series: MAGI assay, HIV-1 LAI. The class given is cell-based. Particulars: MAGI cells, 48 h, mean of triplicate ± SD. How it is done:
as §2

The subject of series [1] is HeLa CD4/CCR5-LTR/β-gal cells. Description: Cytotoxicity by MTT method (MAGI cells). The format is cell-based. As to conditions: MTT, mean of triplicate ± SD. As for the experimental part: as §2
For orientation: Tetrazolium assays rely on reduction of a dye to a coloured formazan, in cell work by metabolically active cells.

The test system of a further series is PBMCs. Kind of series: Cytotoxicity in PBMCs. The class given is cell-based, human. Particulars: PBMCs.
A further series deals with HIV-1 92HT599 (B-X4). Description: PBMC antiviral assay (RT activity), HIV-1 92HT599. The format is cell-based. As to conditions: PHA-P-activated PBMCs, 125 TCID50, day 7, RT activity. How it is done: as §1
For the next series, the system named is HIV-1 LAI (B-X4). Description: PBMC antiviral assay (RT activity), HIV-1 LAI. As to conditions: PHA-P-activated PBMCs, 125 TCID50, day 7, RT activity. The class given is cell-based. As for the experimental part:
as §1

Series [2] relates to HIV-1 96USHIPS4 (B-X4/R5). Kind of series: PBMC antiviral assay (RT activity), HIV-1 96USHIPS4. The format is cell-based. As to conditions: PHA-P-activated PBMCs, 125 TCID50, day 7, RT activity. How it is done:
as §1

As a reminder, the EC50 is the concentration needed to bring the measured effect to its halfway point. A higher EC50 goes with weaker potency. In general, CC50 refers to the concentration giving 50% cytotoxicity. A lower CC50 goes with harm at low concentration. For the molecule `Cc1cn([C@H]2C[C@H](N=[N+]=[N-])[C@@H](CO)O2)c(=O)[nH]c1=O` [AZT, reference compound], the half-maximal effective concentration (EC50) with HIV-1 98IN017 (C-X4) is 6 ± 2 nM; with HIV-1 Ba-L (B-R5), 15 ± 21 nM; in the series with HIV-1 NL4-3 it was 21 ± 11 nM; in the series on HIV-1 92UG029 (A-X4) it was 9 ± 4 nM; with HIV-1 LAI it was 12 ± 8 nM; in the series on HIV-1 92HT599 (B-X4), 12 ± 2 nM. Further, the EC50 in the series on HIV-1 LAI (B-X4) was 12 ± 3 nM; in series [2], 18 ± 10 nM. For the same molecule, the half-maximal cytotoxic concentration (CC50) is > 100 µM in series [1] and > 1000 nM in the series with PBMCs.
